Reference: patent US20130336940A1, “MODIFIED PIG ISLETS FOR DIABETES TREATMENT” (UNIVERSITE CATHOLIQUE DE LOUVAIN, priority 2011, published 2013)

Legend:
pig pancreas = experiment: Pancreatic hormonal content for insulin/glucagon (RIA) after STZ; format: in vivo
Procedure: (§1) Five doses (0, 30, 50, 75, 100 mg/kg) of filter-sterilized Streptozotocin (STZ) (Sigma, Bornem, Belgium) were tested. STZ was solubilised in citrate buffer (25% v/v Na citrate, 23% v/v citric acid, 52% v/v H2O, pH 4.5) and filtered before injection in the external jugular vein (Dufrane, Transplantation, 2006).
For pancreatic hormonal content, insulin and glucagon were first extracted from small biopsies of pancreas taken in the 3 zones (head, body, tail) before being quantified by radio immuno assay (RIA).
For the extraction, ˜1 g of pancreas was cut into small fragments (˜1-2 mm^3) and 5 mL of a solution composed of 75.75% CH3CH2OH, 24.22% H2O, 0.03% HCl were added. The following steps were performed with the samples kept on ice. Samples were mixed (Ultra-Turrax T25 [Janke & Kunkel IKA—Labortechnik, Staufen, Germany]) for 20 seconds 4 times and 5 mL of a solution of 75% CH3CH2OH, 22% H2O, 3% HCl were added to the mixture. The samples were then sonicated 4×20 seconds (Sonifier B 12 [Branson Sonic Power Company, Danbury, Conn., USA]) and centrifugated 10 minutes at 4° C. at 1500 rpm. The first supernatant formed was removed and kept at −20° C. 2 mL of a solution of 75% CH3CH2OH, 23.5% H2O, 1.5% HCl were added to the precipitate and a second step of sonication was performed. The samples were then kept at −20° C. overnight. After a step of centrifugation 10 minutes at 4° C. at 1500 rpm, the second supernatant was removed and kept at −20° C. Thereafter, 2 mL of a solution of 75% CH3CH2OH, 23.5% H2O, 1.5% HCl were added to the precipitate and the mixture was sonicated and centrifuged 10 minutes at 4° C. at 1500 rpm and the third supernatant removed. The three supernatants were then pooled and constituted the pancreas extract. […] The supernatants were immediately removed and the contents of insulin and glucagon were determined by a Wallac Wizard 1470 Automatic gamma counter (GMI Inc, Ramsey, Minn., USA) for 1 minute.

hamsters = conditions: after STZ treatment; cited from earlier work
pig pancreatic islets = experiment: Histomorphometry of pancreatic islets prior to isolation (alpha/beta cells) after STZ; format: in vivo
Procedure: as §1
The cellular composition of islets was determined by immunohistochemistry in small samples of human and pig pancreas taken during dissection of the gland. After overnight fixation in formol at room temperature, the small biopsies were embedded in paraffin and cut in 5 μm sections. These sections were thereafter deparaffinized, rehydrated and washed with a solution of Tris-HCl-Buffered solution 0.05 mol/L (TBS, pH 7.4). After inactivation of endogenous peroxidase by a 30-minute incubation in 0.3% H2O2, the sections were incubated with 10% normal goat serum (NGS) in TBS for 30 minutes. The sections were then incubated overnight at 4° C. with glucagon rabbit polyclonal antibody (BD Bioscience, Erembodegem, Belgium) diluted at 1:100. After washes in TBS, the slides were incubated for 30 minutes with anti-rabbit-IgG (1:500) and these antibodies detected by EnVision anti-rabbit system (Dako A/S, Glostrup, Denmark) for 1 hour at room temperature. […] The glucagon staining was followed by the detection of the β-cells by alkaline phosphatase anti-alkaline phosphatase system (APAAP). After washing, aspecific sites were again inhibited by a 30 minutes incubation with 10% normal goat serum (NGS) in TBS. The slides were thereafter incubated overnight with mouse insulin monoclonal antibody (Abcam, Cambridge, UK) diluted at 1:800.
Islets from human and pig pancreas were compared for cellular proportion and geometric distribution of α and β cells (centre/periphery). Following the islets size, 3 groups of 5 islets (50-99, 100-149 and 150-200 μm) were compared in native/modified young pig versus human pancreas.
The number of small β-cell clusters (≦3 insulin-immunoreactive cells) in the total area of the slide was also assessed. The number of these clusters was manually counted through the entire slide. The area of the slide was measured with ImageJ 1.43i software after capture of pictures of slides with a camera Nikon Coolscan 5000, accessory FH-G1) and calibrated with a stage micrometer to correspond to the number of pixels evidenced on the image analyser.

[1] = STZ 50 mg/kg, by linear regression
[2] = STZ 75 mg/kg, islets of 50-100 μm, prior to isolation

SMILES: CN(N=O)C(=O)N[C@H]1C(O)O[C@H](CO)[C@@H](O)[C@@H]1O (mixture of isomers) [STZ, Streptozotocin]
- theoretical reduction of the pancreatic insulin content (pig pancreas; STZ 30 mg/kg, by linear regression): 30%
- pancreatic glucagon content, humans vs treated pigs (pig pancreas; STZ 30/50/75 mg/kg, 3 months post-STZ treatment): higher in humans
- pancreatic insulin content (pig pancreas; STZ 75-100 mg/kg): significant reduction
- glucagon content (hamsters): increased
- theoretical increase in the proportion of α cells (pig pancreatic islets; [1]): 30%
- theoretical reduction of the proportion of β cells (pig pancreatic islets; [1]): 30%
- number of alpha cells per islet in comparison to humans (pig pancreatic islets; [2]): higher number of alpha cells
- number of beta cells per islet in comparison to humans (pig pancreatic islets; [2]): lower number of beta cell
- number of beta cells per islet in comparison to humans (pig pancreatic islets; STZ 100 mg/kg, islets of 50-100 μm, prior to isolation): lower number of beta cells
- number of alpha cells per islet in comparison to humans (pig pancreatic islets; STZ 30-50 mg/kg, islets of 50-100 μm and 150-200 μm, prior to isolation): lower number of alpha cells per islet
- alpha cell proportion in comparison to human islets (pig pancreatic islets; STZ 30-50 mg/kg, large islets (150-200 μm), prior to isolation): lower alpha cell proportion
- proportion of alpha cells per islet in comparison to humans (pig pancreatic islets; STZ 75-100 mg/kg, each islet size, prior to isolation): higher proportion of alpha cells
- beta cell regeneration (from duct or exocrine tissue) (pig pancreatic islets; STZ-treated pig pancreas): No sign of beta cell regeneration
- number of α and β cells per islet (pig pancreatic islets; from doses of 30 mg/kg STZ, prior to isolation): increased significantly
